The series in a line: Within-participant escalating dose trial Part B: safety and tolerability. The series is classed as in vivo, human. The conditions noted are these: for dose levels well-tolerated with titration: titrated dosing schedule, per day.

The source of these data is patent US20250295646A1, “METHODS OF USE OF T-TYPE CALCIUM CHANNEL MODULATORS” (Praxis Precision Medicines, Inc., priority 2022, published 2025).

On to `CC(C)(C)NC(=O)CN1CCC(CNC(=O)c2cc(F)cc(Cl)c2)CC1.Cl` [compound of formula (II), N-((1-(2-(tert-butylamino)-2-oxoethyl)piperidin-4-yl)methyl)-3-chloro-5-fluorobenzamide hydrochloride], for which the “dose levels well-tolerated with titration” value is “up to 120 mg”.
As for `CC(C)(C)NC(=O)CN1CCC(CNC(=O)c2cc(F)cc(Cl)c2)CC1` [compound of formula (I), N-((1-(2-(tert-butylamino)-2-oxoethyl)piperidin-4-yl)methyl)-3-chloro-5-fluorobenzamide], the “dose levels well-tolerated with titration” value is at most 120 mg. In addition, the “maximum tolerated dosage in the titration scheme” value (highest dose tested 120 mg) was “no maximum tolerated dosage was identified”. Further, for the setting “human, in vivo, 31 days”, the “Cardiac Disorders” value is 4 n (%); the Chest discomfort was 2 n (%); the Dizziness is reported as 3 n (%); the “General Disorders and Administration Site Conditions” value is given as 6 n (%). Moreover, where the note is “human, in vivo, 31 days”, the Headache is given as 2 n (%), the Intoxicated sensation is 2 n (%), the “Medical device site dermatitis” value was 3 n (%) and the “Nervous System Disorders” value is on record as 5 n (%). Where the note is “human, in vivo, 31 days”, the Palpitations is 2 n (%) and the “Participants with at least one TEAE” value is recorded as 12 n (%). In addition, the “treatment related ECG or EEG abnormalities” value (in vivo) is reported as “no treatment related ECG or EEG abnormalities”.
